Experimental data as given in ChEMBL document CHEMBL6071176, “Development of Phloroglucinol-Linked Tris-Quaternary Ammonium Salt Antimicrobial Peptide Mimics with Low Cytotoxicity and Broad-Spectrum Antibacterial Activity” (J Med Chem, 2024).
Activity calls are given as the source filed them. The calls are words filed in the database; no cut-off is given here.

Experiments:
[1] = system: Enterococcus faecalis; test: Antimicrobial activity against Enterococcus faecalis assessed as inhibition of growth incubated for 18 hrs by CLSI guidelines based assay; format: functional
[2] = system: Escherichia coli; test: Antimicrobial activity against Escherichia coli assessed as inhibition of growth incubated for 18 hrs by CLSI guidelines based assay; format: functional
[3] = system: Staphylococcus aureus; test: Antibacterial activity against methicillin-resistant Staphylococcus aureus assessed as inhibition of bacterial growth incubated for 18 hrs by CLSI guidelines based assay; format: functional
[4] = system: Staphylococcus aureus; test: Bactericidal activity against Staphylococcus aureus assessed as bacterial killing in presence of Mueller-Hinton broth; format: functional, organism-based
[5] = system: Staphylococcus aureus; test: Bactericidal activity against Staphylococcus aureus assessed as bacterial killing in presence of 50% serum; format: functional, organism-based
[6] = system: Staphylococcus aureus; test: Bactericidal activity against early exponential phase Staphylococcus aureus assessed as bacterial killing at 3 ug/ml incubated for 12 hrs by time-kill assay; format: functional, organism-based; details: dose 3.0 µg/ml
[7] = system: Escherichia coli; test: Bactericidal activity against early exponential phase Escherichia coli assessed as bacterial killing at 3 ug/ml incubated for 6 hrs by time-kill assay; format: functional, organism-based; details: dose 3.0 µg/ml
[8] = system: Staphylococcus aureus; test: Bactericidal activity against late exponential phase Staphylococcus aureus assessed as bacterial elimination at 8 ug/ml incubated for 6 to 8 hrs by time-kill assay; format: functional; details: dose 8 µg/ml; time 6-8 hrs
[9] = system: Staphylococcus aureus; test: Resistance development in Staphylococcus aureus assessed as increase in MIC measured within 20 passages of continues culture; format: functional
[10] = system: Staphylococcus aureus; test: Anti-biofilim activity against Staphylococcus aureus biofilm assessed bacterial survival rate at 16 ug/ml measured after 24 hrs incubation; format: functional
[11] = system: Staphylococcus aureus; test: Anti-biofilim activity against Staphylococcus aureus biofilm assessed bacterial survival rate at 32 ug/ml measured after 24 hrs incubation; format: functional
[12] = system: Staphylococcus aureus; test: Anti-bacterial activity against 100 times rifampicin induced persistent cells of Staphylococcus aureus assessed as reduction in persistent cells at 32 times of MIC; format: functional
[13] = system: Staphylococcus aureus; test: Anti-microbial activity against Staphylococcus aureus assessed as bacterial growth inhibition in presence of 0.5 to […] ug/ml PG (exogenous bacterial cell membrane component) measured after 18 hrs; format: functional, organism-based
[14] = system: Staphylococcus aureus; test: Induction of ROS level in Staphylococcus aureus assessed as increase in intracellular ROS level at 0.125 to 0.5 ug/ml measured after 4.5 hrs by ROS-sensitive fluorescent probe DCF-DA staining based assay; format: functional, organism-based; details: dose 0.125-0.5 µg/ml
[15] = system: Staphylococcus aureus; test: Up-regulation of riboflavin metabolic pathway genes in Staphylococcus aureus at 0.25 ug/ml and incubated for 4 hrs by Transcriptome analysis; format: functional, organism-based; details: dose 0.25 µg/ml
[16] = system: Staphylococcus aureus; test: Down-regulation of pyrimidine metabolic pathway genes in Staphylococcus aureus at 0.25 ug/ml and incubated for 4 hrs by Transcriptome analysis; format: functional, organism-based; details: dose 0.25 µg/ml
[17] = system: Staphylococcus aureus; test: Down-regulation of N-terminal TPP binding domain in Staphylococcus aureus at 0.25 ug/ml and incubated for 4 hrs by Transcriptome analysis; format: functional, organism-based; details: dose 0.25 µg/ml
[18] = Cytotoxicity against human Gastric mucosal cells measured assessed as cell morphology at 32 ug/ml measured after 24 hrs by Electron scanning microscopy; format: toxicity, cell-based; details: dose 32 µg/ml
[19] = Toxicity in female SPF Kunming mouse assessed as pathological changes in liver at 200 mg/kg/day, sc measured after 24 hrs by hematoxylin and eosin staining based assay; format: organism-based; details: in vivo
[20] = Toxicity in female SPF Kunming mouse assessed as pathological changes in spleen at 200 mg/kg/day, sc measured after 24 hrs by hematoxylin and eosin staining based assay; format: organism-based; details: in vivo
[21] = Toxicity in female SPF Kunming mouse assessed as change in PLT count at 20 mg/kg/day, ip measured after 24 hrs; format: organism-based; details: in vivo
[22] = Toxicity in female SPF Kunming mouse assessed as change in MCV count at 20 mg/kg/day, ip measured after 24 hrs; format: organism-based; details: in vivo
[23] = Toxicity in female SPF Kunming mouse assessed as change in ALB level at 20 mg/kg/day, ip measured after 24 hrs; format: organism-based; details: in vivo

Structure (SMILES): CCCCCCCC[N+](C)(C)CCCCOc1cc(OCCCC[N+](C)(C)CCCCCCCC)cc(OCCCC[N+](C)(C)CCCCCCCC)c1.[Br-].[Br-].[Br-]
- MIC [1]: 1 µg/mL
- MIC [2]: 2 µg/mL
- MIC50 [3]: 1 µg/mL
- MIC90 [3]: ≥ 16 µg/mL
- Activity [4]: Active
- Activity [5]: Active
- Activity [6]: Active
- Activity [7]: Active
- Activity [8]: 100%
- MIC [9]: 0.5 µg/mL
- survival at 16 µg/mL [10]: 0.01%
- survival at 32 µg/mL [11]: 0.002%
- Activity [12]: 5.7 log10CFU/ml
- Activity [13]: inactive
- Activity [14]: Active
- Activity [15]: Active
- Activity [16]: Active
- Activity [17]: Active
- Activity [18]: Non-Toxic
- Activity [19]: Non-Toxic
- Activity [20]: Non-Toxic
- Activity [21]: Non-Toxic
- Activity [22]: Non-Toxic
- Activity [23]: Non-Toxic
